Laboratory results reported in patent publication US9512117B2 (priority 2010, dated 2016).
“And” between values parts separate entries of the source, which are not always exact repeats. Equal entries are not always repeated.

Assays:
Phytophthora infestans = format: in vivo; details: young tomato plants, protective spray, 100 ppm active ingredient, evaluation 7 days after inoculation; 0% = control, 100% = no infection
[1] = logP by HPLC on reversed-phase columns (C 18), EEC directive 79/831 Annex V.A8; format: physicochemical; details: LC-MS; for Log P [a]: acidic range, pH 2.7, 0.1% aqueous formic acid and acetonitrile; for Log P [b]: neutral range, pH 7.8, 0.001 molar aqueous ammonium hydrogencarbonate and acetonitrile
Method: The logP values were measured according to EEC directive 79/831 Annex V.A8 by HPLC (High Performance Liquid Chromatography) on reversed-phase columns (C 18), using the methods below:
^[a] The LC-MS determination in the acidic range is effected at pH 2.7 with 0.1% aqueous formic acid and acetonitrile (contains 0.1% formic acid) as eluents; linear gradient from 10% acetonitrile to 95% acetonitrile.
^[b] The LC-MS determination in the neutral range is effected at pH 7.8 using 0.001 molar aqueous ammonium hydrogencarbonate solution and acetonitrile as eluents; linear gradient from 10% acetonitrile to 95% acetonitrile.
The calibration is effected with unbranched alkan-2-ones (having 3 to 16 carbon atoms) with known logP values (logP values determined on the basis of the retention times by linear interpolation between two successive alkanones).

Plasmopara viticola = experiment: Plasmopara test (grapevine) / protective; format: in vivo; details: young grapevine plants, protective spray, 10 ppm active ingredient, evaluation 6 days after inoculation; 0% = control, 100% = no infection
Method: Plasmopara Test (Grapevine)/Protective
• Solvent: 24.5 parts by weight of acetone • 24.5 parts by weight of dimethylacetamide • Emulsifier: 1 part by weight of alkylaryl polyglycol ether
To produce a suitable active ingredient formulation, 1 part by weight of active ingredient is mixed with the stated amounts of solvent and emulsifier, and the concentrate is diluted with water to the desired concentration.
To test for protective efficacy, young plants are sprayed with the active ingredient formulation at the stated application rate. After the spray coating has dried on, the plants are inoculated with an aqueous spore suspension of Plasmopara viticola and then remain in an incubation cabin at approx. 20° C. and 100% relative air humidity for 1 day. Subsequently, the plants are placed in a greenhouse at approx. 21° C. and approx. 90% air humidity for 4 days. The plants are then moistened and placed in an incubation cabin for 1 day.
Evaluation follows 6 days after the inoculation. 0% means an efficacy which corresponds to that of the control, whereas an efficacy of 100% means that no infection is observed.
In this test, the following inventive compounds show, at an active ingredient concentration of 10 ppm, an efficacy of 70% or more: […]

Structure (SMILES)	Eff. % (Phytophthora infestans)	Log P [a] [1]	Eff. % (Plasmopara viticola)	Log P [b] [1]
Cc1cc(C(F)(F)F)nn1CC(=O)N1CCC(c2nc(C3=NOC(c4ccccc4C[S+](C)[O-])C3)cs2)CC1 (mixture of isomers) [Ex. 35]	100%	2.34[a]		
CC[S+]([O-])Cc1ccccc1C1CC(c2csc(C3CCN(C(=O)Cn4nc(C(F)(F)F)cc4C)CC3)n2)=NO1 (mixture of isomers) [Ex. 36]	100%	2.53[a]		
Cc1cc(C(F)(F)F)nn1CC(=O)N1CCC(c2nc(C3=NOC(c4ccccc4CS(C)(=O)=O)C3)cs2)CC1 (racemic) [Ex. 34]	100%	2.6[a]	84%	
C#CCOc1cccc(F)c1C1(C)CC(c2csc(C3CCN(C(=O)Cn4nc(C)cc4C(F)F)CC3)n2)=NO1 (racemic) [Ex. 37]	94%	3.11[a];	96%	3.12[b];
C#CCOc1cccc(Cl)c1C1CC(c2csc(C3CCN(C(=O)Nc4cc(C)ccc4C)CC3)n2)=NO1 (racemic) [Ex. 38]	94%	3.68[a];	100%	3.57[b]
C=CCOc1cccc(Cl)c1C1CC(c2csc(C3CCN(C(=O)Nc4cc(Cl)ccc4C)CC3)n2)=NO1 (racemic) [Ex. 39]	94%	4.21[a];	100%	4.11[b]
Cc1cc(C(F)(F)F)nn1CC(=O)N1CCC(c2nc(C3=NOC(c4cccc(OC(=O)C5CC5)c4)C3)cs2)CC1 (racemic) [Ex. 40]	100%	3.53[a];	85%	3.47[b]
C=CCOc1cccc(C2CC(c3csc(C4CCN(C(=O)Cn5nc(C(F)(F)F)cc5C)CC4)n3)=NO2)c1 (racemic) [Ex. 41]	98% and 97%	3.62[a];	78%	3.68[b];
C=CCOc1cccc(Cl)c1C1CC(c2csc(C3CCN(C(=O)Nc4cc(C)ccc4C)CC3)n2)=NO1 (racemic) [Ex. 42]	94%	3.98[a];	96%	3.91[b]
Cc1cc(C(F)(F)F)nn1CC(=O)N1CCC(c2nc(C3=NOC(c4ccccc4COCC(F)(F)F)C3)cs2)CC1 (racemic) [Ex. 43]	97%	3.77[a]	83%	
COCCOCc1ccccc1C1CC(c2csc(C3CCN(C(=O)Cn4nc(C(F)(F)F)cc4C)CC3)n2)=NO1 (racemic) [Ex. 44]	94%	3.28[a]		
C#CCOc1ccccc1C1CC(c2csc(C3CCN(C(=O)Nc4cc(C)ccc4C)CC3)n2)=NO1 (racemic) [Ex. 45]	100%	3.43[a];	96%	3.41[b]
C=CCOc1ccccc1C1CC(c2csc(C3CCN(C(=O)Nc4cc(C)ccc4C)CC3)n2)=NO1 (racemic) [Ex. 46]	100%	3.91[a];	98%	3.81[b]
Cc1cc(C(F)(F)F)nn1CC(=O)N1CCC(c2nc(C3=NOC(c4ccc(OC(=O)C5CC5)cc4)C3)cs2)CC1 (racemic) [Ex. 47]	100%	3.49[a];	86%	3.4[b]
Cc1cc(C(F)(F)F)nn1CC(=O)N1CCC(c2nc(C3=NOC(c4c(Cl)cccc4OC(=O)C4CC4)C3)cs2)CC1 (racemic) [Ex. 48]	70%	3.73[a];	95%	3.64[b]
COCCOc1cccc(F)c1C1CC(c2csc(C3CCN(C(=O)Cn4nc(C(F)(F)F)cc4C)CC3)n2)=NO1 (racemic) [Ex. 49]	90%	3.28[a];	100%	3.17[b]
C=CCOc1cccc(Cl)c1C1CC(c2csc(C3CCN(C(=O)Cn4nc(C(F)(F)F)cc4C)CC3)n2)=NO1 (racemic) [Ex. 50]	70%	3.94[a];	100%	3.83[b]
C=CCOc1cccc(F)c1C1CC(c2csc(C3CCN(C(=O)Cn4nc(C(F)(F)F)cc4C)CC3)n2)=NO1 (racemic) [Ex. 51]	85%	3.7[a];	100%	3.61[b]
C=CCOc1c(F)cccc1C1CC(c2csc(C3CCN(C(=O)Cn4nc(C(F)(F)F)cc4C)CC3)n2)=NO1 (racemic) [Ex. 52]	97%	3.97[a];	98%	3.84[b]
Cc1cc(C(F)(F)F)nn1CC(=O)N1CCC(c2nc(C3=NOC(c4c(F)cccc4C=O)C3)cs2)CC1 (racemic) [Ex. 53]	98%	3.03[a];	100%	2.95[b]

Structure (SMILES)	Eff. % (Phytophthora infestans)	Log P [a] [1]	Eff. % (Plasmopara viticola)	Log P [b] [1]
Cc1cc(C(F)(F)F)nn1CC(=O)N1CCC(c2nc(C3=NOC(c4cccc(F)c4OC(=O)C4CC4)C3)cs2)CC1 (racemic) [Ex. 54]	94%	3.62[a];	91%	3.5[b]
Cc1cc(C(F)(F)F)nn1CC(=O)N1CCC(c2nc(C3=NOC(c4ccccc4NS(C)(=O)=O)C3)cs2)CC1 (stereo not drawn) [Ex. 5, N-(2-{3-[2-(1-{[5-Methyl-3-(trifluoromethyl)-1H-pyrazol-1-yl]acetyl}piperidin-4-yl)-1,3-thiazol-4-yl]-4,5-dihydro-1,2-oxazol-5-yl}phenyl)methanesulphonamide]	95%		84%	
C#CCOc1ccc(F)c(C2CC(c3csc(C4CCN(C(=O)Cn5nc(C(F)(F)F)cc5C)CC4)n3)=NO2)c1F (stereo not drawn) [Ex. 8]	100%		100%	
C#CCOc1c(F)cccc1C1CC(c2csc(C3CCN(C(=O)Cn4nc(C(F)(F)F)cc4C)CC3)n2)=NO1 (stereo not drawn) [Ex. 9]	94%		100%	
C#CCOc1cccc(C2CC(c3csc(C4CCN(C(=O)Cn5nc(C(F)(F)F)cc5C)CC4)n3)=NO2)c1 (stereo not drawn) [Ex. 10]		3.49[a];		3.3[b]
O=C(Oc1ccccc1C1CC(c2csc(C3CCN(C(=O)Cn4nc(C(F)(F)F)cc4C(F)(F)F)CC3)n2)=NO1)C1CC1 (stereo not drawn) [Ex. 14]		4.04[a]		
CC#CCOc1cc(OC)ccc1C1CC(c2csc(C3CCN(C(=O)Cn4nc(C(F)F)cc4C)CC3)n2)=NO1 (stereo not drawn) [Ex. 15]		3.28[a]		
O=C(Cn1nc(C(F)(F)F)cc1C(F)(F)F)N1CCC(c2nc(C3=NOC(c4ccccc4OCC4CC4)C3)cs2)CC1 (stereo not drawn) [Ex. 16]		4.59[a]	96%	
Cc1cc(C(F)(F)F)nn1CC(=O)N1CCC(c2nc(C3=NOC(c4ccccc4OCC4CC4)C3)cs2)CC1 (stereo not drawn) [Ex. 17]		4.03[a]	92%	
C=CCOc1ccc(F)c(C2CC(c3csc(C4CCN(C(=O)Cn5nc(C(F)(F)F)cc5C)CC4)n3)=NO2)c1F (stereo not drawn) [Ex. 19]	98%		98%	
C#CCOc1cc(Cl)ccc1C1CC(c2csc(C3CCN(C(=O)Cn4nc(C(F)F)cc4C)CC3)n2)=NO1 (stereo not drawn) [Ex. 20]		3.37[a];		3.36[b]
C#CCOc1cc(Cl)cc(Cl)c1C1CC(c2csc(C3CCN(C(=O)Cn4nc(C(F)F)cc4C)CC3)n2)=NO1 (stereo not drawn) [Ex. 21]		3.66[a];		3.57[b]
C=CCOc1cc(C)ccc1C1CC(c2csc(C3CCN(C(=O)Cn4nc(C(F)F)cc4C)CC3)n2)=NO1 (stereo not drawn) [Ex. 22]		3.62[a];		3.66[b];
C#CCOc1cc(C)ccc1C1CC(c2csc(C3CCN(C(=O)Cn4nc(C(F)F)cc4C)CC3)n2)=NO1 (stereo not drawn) [Ex. 23]		3.23[a];		3.23[b];
C=CCOc1cc(Cl)cc(Cl)c1C1CC(c2csc(C3CCN(C(=O)Cn4nc(C(F)F)cc4C)CC3)n2)=NO1 (stereo not drawn) [Ex. 24]		3.95[a];		3.97[b];
C#CCOc1cc(C)ccc1C1CC(c2csc(C3CCN(C(=O)Cn4nc(C(F)(F)F)cc4C)CC3)n2)=NO1 (stereo not drawn) [Ex. 26]	100%	3.67[a];		3.61[b]
COc1ccc(C2CC(c3csc(C4CCN(C(=O)Cn5nc(C(F)F)cc5C)CC4)n3)=NO2)c(OCC2CC2)c1 (stereo not drawn) [Ex. 27]		3.5[a]		
Cc1cc(C(F)F)nn1CC(=O)N1CCC(c2nc(C3=NOC(c4c(F)cccc4OCC4CC4)C3)cs2)CC1 (stereo not drawn) [Ex. 28]		3.44[a]		
C#CCOc1cccc(F)c1C1CC(c2csc(C3CCN(C(=O)Cn4nc(C(F)F)cc4C)CC3)n2)=NO1 (stereo not drawn) [Ex. 31]		2.92[a]		
